Laboratory results: ChEMBL document CHEMBL1133967, “New leads for selective inhibitors of alpha-L-fucosidases. Synthesis and glycosidase inhibitory activities of [(2R,3S,4R)-3,4-dihydroxypyrrolidin-2-yl]furan derivatives” (Bioorg Med Chem Lett, 2001)
The source made the active and inactive calls. The rule behind the calls is not given here.

Experiments:
Prunus dulcis [1] = test: Percent inhibition against Alpha-mannosidase of Almonds at 1 mM
[2] = target: Beta-galactosidase (Escherichia coli) (UniProt Q8VNN2); test: Inhibitory activity against Beta-D-galactosidase of Escherichia coli at 1 mM; No inhibition
[3] = target: T1, Beta-galactosidase (Bos taurus) (UniProt Q58D55); test: Percent inhibition against Beta-D-galactosidase of bovine liver at 1 mM
T1 sequence (whole entry): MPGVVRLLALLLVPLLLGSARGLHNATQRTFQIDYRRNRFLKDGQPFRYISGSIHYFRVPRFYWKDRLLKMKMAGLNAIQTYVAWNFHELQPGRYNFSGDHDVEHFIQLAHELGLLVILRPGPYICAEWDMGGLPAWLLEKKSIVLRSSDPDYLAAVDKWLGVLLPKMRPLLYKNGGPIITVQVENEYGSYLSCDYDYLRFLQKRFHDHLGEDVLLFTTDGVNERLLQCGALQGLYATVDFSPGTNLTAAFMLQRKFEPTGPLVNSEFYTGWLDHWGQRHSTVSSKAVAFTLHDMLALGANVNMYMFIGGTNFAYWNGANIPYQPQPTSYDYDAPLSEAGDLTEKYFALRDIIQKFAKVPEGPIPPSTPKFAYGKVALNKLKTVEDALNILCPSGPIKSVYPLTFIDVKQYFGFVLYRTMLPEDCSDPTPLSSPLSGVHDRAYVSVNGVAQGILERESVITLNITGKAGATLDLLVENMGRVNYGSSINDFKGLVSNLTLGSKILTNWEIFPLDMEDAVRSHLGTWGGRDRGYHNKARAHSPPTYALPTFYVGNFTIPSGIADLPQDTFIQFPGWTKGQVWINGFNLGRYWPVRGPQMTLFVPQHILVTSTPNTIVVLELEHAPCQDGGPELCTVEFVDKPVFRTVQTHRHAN

[4] = target: Glucoamylase (Aspergillus niger) (UniProt P69328); test: Percent inhibition against Amyloglucosidase of Aspergillus niger at 1 mM
[5] = target: T2, Beta-galactosidase (Aspergillus niger) (UniProt P29853); test: Inhibitory activity against Beta-D-galactosidase of Aspergillus niger at 1 mM; No inhibition
T2 sequence (whole entry): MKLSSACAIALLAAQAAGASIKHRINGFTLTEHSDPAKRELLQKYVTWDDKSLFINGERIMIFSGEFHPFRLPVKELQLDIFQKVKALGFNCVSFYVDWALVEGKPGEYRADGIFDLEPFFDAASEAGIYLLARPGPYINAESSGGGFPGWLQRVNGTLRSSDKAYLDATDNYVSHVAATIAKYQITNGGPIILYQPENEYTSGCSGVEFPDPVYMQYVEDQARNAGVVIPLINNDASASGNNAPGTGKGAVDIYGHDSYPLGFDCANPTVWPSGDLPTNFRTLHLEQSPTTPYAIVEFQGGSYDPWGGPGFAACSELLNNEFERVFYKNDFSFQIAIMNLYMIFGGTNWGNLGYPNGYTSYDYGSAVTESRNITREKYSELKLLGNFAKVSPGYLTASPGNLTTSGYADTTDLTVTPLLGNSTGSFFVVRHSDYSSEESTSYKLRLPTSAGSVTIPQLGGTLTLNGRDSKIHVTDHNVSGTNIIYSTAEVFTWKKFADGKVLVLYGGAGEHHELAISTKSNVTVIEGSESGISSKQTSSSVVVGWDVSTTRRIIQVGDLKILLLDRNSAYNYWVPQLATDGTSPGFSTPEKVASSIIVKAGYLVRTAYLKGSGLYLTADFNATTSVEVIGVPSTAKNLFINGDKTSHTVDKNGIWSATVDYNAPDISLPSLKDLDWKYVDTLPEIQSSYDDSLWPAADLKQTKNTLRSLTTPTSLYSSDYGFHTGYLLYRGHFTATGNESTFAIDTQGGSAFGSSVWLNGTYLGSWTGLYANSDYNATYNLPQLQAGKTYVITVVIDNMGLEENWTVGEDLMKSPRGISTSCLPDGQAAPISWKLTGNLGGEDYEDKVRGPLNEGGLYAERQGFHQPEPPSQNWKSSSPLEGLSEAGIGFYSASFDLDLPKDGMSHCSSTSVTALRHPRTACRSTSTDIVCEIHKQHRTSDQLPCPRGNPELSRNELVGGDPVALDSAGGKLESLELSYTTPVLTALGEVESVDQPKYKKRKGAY

[6] = target: Glucoamylase (Aspergillus niger) (UniProt P69328); test: Inhibitory activity against Amyloglucosidase of Aspergillus niger at 1 mM; No inhibition
Canavalia ensiformis [7] = test: Percent inhibition against Alpha-mannosidase of Jack bean at 1 mM
Prunus dulcis [8] = test: Inhibitory activity against Alpha-mannosidase of Almonds at 1 mM; No inhibition
Escherichia coli = test: Inhibitory activity against Alpha-galactosidase of Escherichia coli at 1 mM; No inhibition
[9] = test system: Beta-N-acetylglucosaminidase (Bos taurus); test: Inhibitory activity against Beta-N-acetylglucosaminidase of bovine epididymis A at 1 mM; No inhibition
maltase (Oryza sativa) [10] = test: Inhibitory activity against maltase of rice at 1 mM
Aspergillus oryzae = test: Inhibitory activity against Beta-D-galactosidase of Aspergillus oryzae at 1 mM; No inhibition
[11] = test system: isomaltase (Saccharomyces cerevisiae); test: Inhibitory activity against isomaltase of baker yeast at 1 mM; No inhibition
Coffea arabica = test: Inhibitory activity against Alpha-galactosidase of coffee bean at 1 mM; No inhibition
Canavalia ensiformis [12] = test: Inhibitory activity against Beta-D-galactosidase of Jack bean at 1 mM; No inhibition
Bos taurus [13] = species on record: Bos taurus; test: Inhibitory activity against alpha-L-Fucosidase of bovine epididymis at 1 mM; No inhibition
Prunus dulcis [14] = test: Inhibitory activity against Beta-glucosidase of almonds at 1 mM; No inhibition
[15] = test system: Caldicellulosiruptor saccharolyticus; test: Inhibitory activity against Beta-glucosidase of Caldocellum saccharolyticum at 1 mM; No inhibition
[16] = target: T3, Tissue alpha-L-fucosidase (Homo sapiens) (UniProt P04066); test: Inhibitory activity against alpha-L-Fucosidase of human placenta at 1 mM; No inhibition
T3 sequence (whole entry): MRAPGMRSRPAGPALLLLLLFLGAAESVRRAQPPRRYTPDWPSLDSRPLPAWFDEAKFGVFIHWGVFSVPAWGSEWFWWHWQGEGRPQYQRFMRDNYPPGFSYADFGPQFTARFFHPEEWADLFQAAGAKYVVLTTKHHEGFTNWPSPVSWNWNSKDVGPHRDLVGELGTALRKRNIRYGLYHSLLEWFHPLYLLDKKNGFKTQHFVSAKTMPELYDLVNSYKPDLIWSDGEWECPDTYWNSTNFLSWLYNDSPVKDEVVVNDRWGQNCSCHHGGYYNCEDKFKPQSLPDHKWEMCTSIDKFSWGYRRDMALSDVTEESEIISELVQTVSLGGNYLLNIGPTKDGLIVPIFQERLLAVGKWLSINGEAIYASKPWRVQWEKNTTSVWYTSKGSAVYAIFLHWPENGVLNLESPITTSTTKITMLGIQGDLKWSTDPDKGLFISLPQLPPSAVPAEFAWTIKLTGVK

Helix pomatia = test: Inhibitory activity against Beta-mannosidase of Helix pomatia at 1 mM; No inhibition
[17] = test system: maltase (Saccharomyces cerevisiae); test: Inhibitory activity against maltase of yeast at 1 mM; No inhibition
Gallus gallus = species on record: Gallus gallus; test: Inhibitory activity against alpha-N-acetylgalactosaminidase of chicken liver at 1 mM; No inhibition
Rhizopus = test: Inhibitory activity against Amyloglucosidase of Rhizopus mold at 1 mM; No inhibition
Canavalia ensiformis [18] = test: Inhibitory activity against Alpha-mannosidase of Jack bean at 1 mM; No inhibition
[19] = test system: Beta-N-acetylglucosaminidase (Canavalia ensiformis); test: Inhibitory activity against Beta-N-acetylglucosaminidase of Jack bean at 1 mM; No inhibition
[20] = test system: Beta-N-acetylglucosaminidase (Bos taurus); test: Inhibitory activity against Beta-N-acetylglucosaminidase of bovine epididymis B at 1 mM; No inhibition
Aspergillus niger = test: Inhibitory activity against Alpha-galactosidase of Aspergillus niger at 1 mM; No inhibition
maltase (Oryza sativa) [21] = test: Inhibitory activity against maltase of rice at 1 mM; No inhibition
[22] = target: T3, Tissue alpha-L-fucosidase (Homo sapiens); test: Percent inhibition against alpha-L-Fucosidase of human placenta at 1 mM
[23] = target: T2, Beta-galactosidase (Aspergillus niger); conditions: 1 mM
Description: Percent inhibition against Beta-D-galactosidase of Aspergillus niger at 1 mM

Bos taurus [24] = species on record: Bos taurus; test: Percent inhibition against alpha-L-Fucosidase of bovine epididymis at 1 mM
[25] = target: T4, Tissue alpha-L-fucosidase (Homo sapiens, UniProt P04066); test: Inhibitory concentration against alpha-L-Fucosidase of human placenta
T4 sequence (P04066 whole entry): T3 sequence (whole entry)

Sequence of Glucoamylase (Aspergillus niger) (P69328 whole entry): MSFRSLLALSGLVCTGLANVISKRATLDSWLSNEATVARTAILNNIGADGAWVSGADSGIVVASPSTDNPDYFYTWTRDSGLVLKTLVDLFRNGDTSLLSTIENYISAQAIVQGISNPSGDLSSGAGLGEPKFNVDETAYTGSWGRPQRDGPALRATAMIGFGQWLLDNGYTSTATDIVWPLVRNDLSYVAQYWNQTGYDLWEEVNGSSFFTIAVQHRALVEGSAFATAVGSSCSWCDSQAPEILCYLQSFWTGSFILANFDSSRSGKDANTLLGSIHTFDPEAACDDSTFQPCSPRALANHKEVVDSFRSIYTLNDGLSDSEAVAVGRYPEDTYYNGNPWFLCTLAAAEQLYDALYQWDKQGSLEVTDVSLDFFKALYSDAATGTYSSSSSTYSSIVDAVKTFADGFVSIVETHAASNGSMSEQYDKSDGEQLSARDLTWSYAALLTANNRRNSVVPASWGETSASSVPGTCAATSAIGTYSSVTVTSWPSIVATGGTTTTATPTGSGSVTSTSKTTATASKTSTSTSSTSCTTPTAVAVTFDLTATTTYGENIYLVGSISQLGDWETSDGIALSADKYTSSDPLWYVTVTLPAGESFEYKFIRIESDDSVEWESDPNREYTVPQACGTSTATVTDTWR
Sequence of Beta-galactosidase (Escherichia coli) (Q8VNN2 whole entry, looked up): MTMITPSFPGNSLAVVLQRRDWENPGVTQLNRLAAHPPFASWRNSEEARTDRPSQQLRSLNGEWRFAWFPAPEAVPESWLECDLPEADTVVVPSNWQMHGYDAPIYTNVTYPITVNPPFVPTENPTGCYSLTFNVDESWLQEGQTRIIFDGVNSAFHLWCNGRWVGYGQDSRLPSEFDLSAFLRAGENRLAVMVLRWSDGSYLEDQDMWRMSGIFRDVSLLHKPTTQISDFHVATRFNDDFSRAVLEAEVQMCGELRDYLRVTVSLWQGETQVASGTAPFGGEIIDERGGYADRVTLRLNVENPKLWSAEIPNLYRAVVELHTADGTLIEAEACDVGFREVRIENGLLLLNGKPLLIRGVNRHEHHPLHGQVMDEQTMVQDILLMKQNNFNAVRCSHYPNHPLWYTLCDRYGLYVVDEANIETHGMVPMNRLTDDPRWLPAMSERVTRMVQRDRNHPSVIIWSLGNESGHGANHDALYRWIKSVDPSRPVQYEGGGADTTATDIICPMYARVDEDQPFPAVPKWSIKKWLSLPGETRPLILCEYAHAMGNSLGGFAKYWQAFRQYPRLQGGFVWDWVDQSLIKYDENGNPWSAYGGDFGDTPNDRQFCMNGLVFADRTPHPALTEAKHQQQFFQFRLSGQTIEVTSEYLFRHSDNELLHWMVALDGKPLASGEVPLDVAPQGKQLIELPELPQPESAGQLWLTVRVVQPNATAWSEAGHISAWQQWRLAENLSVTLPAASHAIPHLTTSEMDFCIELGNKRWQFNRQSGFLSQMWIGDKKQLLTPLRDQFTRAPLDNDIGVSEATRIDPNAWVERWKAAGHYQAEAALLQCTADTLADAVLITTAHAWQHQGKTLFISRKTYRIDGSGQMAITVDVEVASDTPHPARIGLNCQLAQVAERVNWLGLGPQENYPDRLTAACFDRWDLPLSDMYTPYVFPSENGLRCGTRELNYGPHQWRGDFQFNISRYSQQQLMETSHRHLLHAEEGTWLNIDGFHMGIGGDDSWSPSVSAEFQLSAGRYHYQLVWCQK

Compound | inhibition (Prunus dulcis [1]) [%] | inhibition [2] | inhibition [3] [%] | inhibition [5] | inhibition [6] | inhibition (Canavalia ensiformis [7]) [%] | inhibition (Prunus dulcis [8]) | inhibition (Escherichia coli) | inhibition [9] | inhibition (Aspergillus oryzae) | inhibition [11] | inhibition (Coffea arabica) | inhibition (Canavalia ensiformis [12]) | inhibition (Prunus dulcis [14]) | inhibition [15] | inhibition (Helix pomatia) | inhibition [17] | inhibition (Gallus gallus) | inhibition (Rhizopus) | inhibition (Canavalia ensiformis [18]) | also measured
Cc1oc(C2NCC(O)C2O)cc1CO (configuration not stated) | – | inactive | 50 | inactive | inactive | – | inactive | inactive | inactive | inactive | inactive | inactive | inactive | inactive | No inhibition | No inhibition | inactive | inactive | inactive | inactive | inhibition (maltase (Oryza sativa) [21]): inactive; inhibition (Bos taurus [13]): inactive; inhibition [16]: inactive; inhibition [19]: inactive; inhibition [20]: inactive; inhibition (Aspergillus niger): inactive
Cc1oc(C2NCC(O)C2O)cc1C(=O)Nc1ccccc1 (configuration not stated) | – | inactive | 39 | inactive | inactive | – | inactive | inactive | inactive | inactive | inactive | inactive | inactive | inactive | No inhibition | No inhibition | inactive | inactive | inactive | inactive | inhibition (maltase (Oryza sativa) [21]): inactive; inhibition [22]: 51%; inhibition (Bos taurus [24]): < 10%; IC50 [25]: 1000 µM; inhibition [19]: inactive; inhibition [20]: inactive; inhibition (Aspergillus niger): inactive
CCN(CC)C(=O)c1cc(C2NCC(O)C2O)oc1C (configuration not stated) | 31 | inactive | 58 | inactive | inactive | 27 | – | – | – | – | – | – | – | – | – | – | – | – | – | – | –

More lines, main results first:

inhibition (Prunus dulcis [1]) [%] | inhibition [2] | inhibition [3] [%] | inhibition [5] | inhibition [6] | inhibition (Canavalia ensiformis [7]) [%] | inhibition (Prunus dulcis [8]) | inhibition (Escherichia coli) | inhibition [9] | inhibition (Aspergillus oryzae) | inhibition [11] | inhibition (Coffea arabica) | inhibition (Canavalia ensiformis [12]) | inhibition (Prunus dulcis [14]) | inhibition [15] | inhibition (Helix pomatia) | inhibition [17] | inhibition (Gallus gallus) | inhibition (Rhizopus) | inhibition (Canavalia ensiformis [18]) | Compound | also measured
29 | inactive | 38 | inactive | – | – | – | – | – | – | – | – | – | – | – | – | – | – | – | – | Cc1oc(C2NCC(O)C2O)cc1C(=O)NC(C)C (configuration not stated) | inhibition [4]: 23%
32 | inactive | 52 | inactive | inactive | 29 | – | – | – | – | – | – | – | – | – | – | – | – | – | – | CCNC(=O)c1cc(C2NCC(O)C2O)oc1C (configuration not stated) | –
– | inactive | 30 | inactive | inactive | – | inactive | inactive | inactive | inactive | inactive | inactive | inactive | inactive | No inhibition | No inhibition | inactive | inactive | inactive | inactive | Cc1oc(C2NCC(O)C2O)cc1C(=O)O (configuration not stated) | inhibition (maltase (Oryza sativa) [10]): No inhibition; inhibition (Bos taurus [13]): inactive; inhibition [16]: inactive; inhibition [19]: inactive; inhibition [20]: inactive; inhibition (Aspergillus niger): inactive
– | inactive | 57 | – | inactive | 38 | inactive | – | – | – | – | – | – | – | – | – | – | – | – | – | CCOC(=O)c1cc(C2NCC(O)C2O)oc1C (configuration not stated) | inhibition [22]: 76%; inhibition [23]: 80%
